Results reported in patent US11478476B2 (CONTERA PHARMA APS, priority 2014, dated 2022).
Like-named read-outs stand apart in the source and are kept apart here.

Experiments:
[1] = test system: L-DOPA induced dyskinesia (LID) model rats; assay: L-DOPA induced AIMs in 6-OHDA lesioned LID model rats; type: in vivo, rat
Text: Animals: 80 experimentally-naïve, male, 9 weeks old Sprague-Dawley rats at body weight of 200 to 250 g arrive at the laboratory at least 1 week prior to behavioural testing. Rats were housed in groups of n=2/cage. Animals had ad libitum access to standard rodent chow and water. Animal housing and testing rooms were maintained under controlled environmental conditions and were within close proximity of each other. Animal housing rooms were on a 12-hour light-dark cycle with lights on at 6:00 AM and maintained at 70° F./21° C. (range: 68-72° F./20-22° C.) with a humidity range of 20-40%. Testing rooms were maintained at 68-72° F. with a humidity range of 20-40%. DA (dopamine)-denervating lesions were performed by unilateral injection of 6-OHDA in the ascending nigrostriatal pathway. Rats were anesthetized with pentobarbital sodium 40 mg/kg (i.p.) and positioned in a stereotactic frame. 6-OHDA was injected into the right ascending DA bundle at the following coordinates relative to bregma and dural surface: A (anterior-posterior), L (lateral), V (dorsoventral): A −1.8, L −2.0, V −8.6, tooth bar 0.0.
The neurotoxin injections were performed at a rate of 1 ul/min, and the injection cannula is left in place for an additional 2-3 min thereafter. Two weeks after surgery, contralateral full body turns were recorded over 30 min, following s.c. injection of 0.5 mg/kg of apomorphine sulfate. The animals were placed in plastic Perspex bowls (30 cm in diameter) and the rotational behavior (360° turns) is recorded by an automated rotometer for […] after the s.c. injection of 0.5 mg/kg of apomorphine sulfate. Apomorphine (0.5 mg/kg, s.c.) induced contralateral rotation in unilateral 6-OHDA lesioned rats. 73 rats with rotations ≥180/30 min, indicating >90% DA lesion in nigrostriatal pathway, were chosen as the PD model rats for chronic L-DOPA treatment.
Starting one day after the apomorphine-induced rotation test, 6-OHDA-lesioned rats were treated with daily L-DOPA (Sigma-Aldrich, Germany) (8 mg/kg plus benserazide 15 mg/kg, s.c.) for 21 days. Rats were placed individually in transparent plastic cages without bedding material and scored every 20 min following the injection of L-DOPA for the entire time course of dyskinesias (120 min). The AIMs were classified into four subtypes according to their topographic distributions such as Locomotive, Forelimb, Axial and Orolingual behaviors. The severity of each AIM subtype was assessed by using scores from 0 to 4 (1: occasional, i.e. present less than 50% of the time; 2: frequent, i.e. present more than 50% of the time; 3: continuous, but interrupted by strong sensory stimuli; 4: continuous, not interrupted by strong sensory stimuli). In this study, rats with an AIMs≥28 were considered highly dyskinetic, while rats with an AIMs<28 either low or none-dyskinetic.
After chronic L-DOPA treatment on PD rats for 21 days, 42 LID model rats (348 g˜501 g, 15 weeks old) were successfully created with the criteria of total AIM scores (Lo+Li+AX+OI)≥28 points.
AIMs ratings were performed by an investigator who was kept unaware of the pharmacological treatment administered to each rat (experimentally blinded). In order to quantify the severity of the AIMs, rats were observed individually in their standard cages every 20th minute at 20-180 min after an injection of I-DOPA. The AIM's were classified into four subtypes:
Each of the four subtypes are scored on a severity scale from 0 to 4, where 0=absent, 1=present during less than half of the observation time, 2=present for more than half of the observation time, 3=present all the time but suppressible by external stimuli, and 4=present all the time and not suppressible by external stimuli. Axial, limb and orolingual AIMs are found to be modulated in a similar way by all the tested substances.
Rats were tested for AIMs using the sum of locomotive (LO) oraxial (AX), limb (LI), and orolingual (OL) AIM scores per testing session for statistical analyses. […]

[2] = target: human recombinant dopamine D3 receptor (Homo sapiens, UniProt P35462); conditions: saturating concentrations of dopamine; read-out: D3 efficacy IC50 ± SEM; cited from earlier work
[3] = target: T1, human recombinant dopamine D4 receptor (Homo sapiens, UniProt P21917); conditions: saturating concentrations of dopamine; read-out: D4 efficacy IC50 ± SEM; cited from earlier work
T1 sequence (P21917 1-419): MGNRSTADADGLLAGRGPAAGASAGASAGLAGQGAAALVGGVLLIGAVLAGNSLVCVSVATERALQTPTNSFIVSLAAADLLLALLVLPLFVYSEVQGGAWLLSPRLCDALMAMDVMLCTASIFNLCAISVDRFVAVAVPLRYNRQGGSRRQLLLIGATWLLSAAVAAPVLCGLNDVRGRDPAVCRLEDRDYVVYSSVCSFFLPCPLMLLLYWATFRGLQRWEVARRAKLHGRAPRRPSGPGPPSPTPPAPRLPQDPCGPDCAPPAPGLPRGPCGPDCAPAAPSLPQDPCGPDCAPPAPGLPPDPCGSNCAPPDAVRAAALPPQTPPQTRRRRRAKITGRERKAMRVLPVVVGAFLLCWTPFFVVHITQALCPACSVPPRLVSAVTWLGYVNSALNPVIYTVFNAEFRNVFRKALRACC

[4] = human volunteers, cited from earlier work
[5] = oral administration of buspirone, analyte = label (6-OH-Busp: total, both enantiomers)
[6] = oral administration of racemic 6-OH-Busp, exposure of 6-OH-Busp

Chain of human recombinant dopamine D3 receptor (P35462 whole entry): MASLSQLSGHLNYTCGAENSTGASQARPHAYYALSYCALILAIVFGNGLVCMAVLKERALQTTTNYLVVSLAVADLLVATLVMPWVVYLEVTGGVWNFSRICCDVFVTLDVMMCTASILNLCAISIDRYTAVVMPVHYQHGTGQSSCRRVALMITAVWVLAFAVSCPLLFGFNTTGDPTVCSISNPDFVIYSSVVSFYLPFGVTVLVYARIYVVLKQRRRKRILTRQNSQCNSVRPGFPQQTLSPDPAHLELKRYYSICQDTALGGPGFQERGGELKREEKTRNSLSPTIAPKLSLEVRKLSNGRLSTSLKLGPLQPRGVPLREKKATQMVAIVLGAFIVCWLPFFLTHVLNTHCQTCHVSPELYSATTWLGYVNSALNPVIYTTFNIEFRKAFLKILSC

For `O=C1CC2(CCCC2)C(O)C(=O)N1CCCCN1CCN(c2ncccn2)CC1` (racemic) [6-OH-Busp], the “total AIMs sum” value ([1]; Example XII, 0.3, 1 and 3 mg/kg s.c.) was “dose-dependently decreased”, the “AIMs of LID rats at time points” value ([1]; Example XII, 0.3, 1 and 3 mg/kg s.c., 30 to 190 min after L-DOPA injection) was “dose-dependently decreased” and the “AUC of total AIMs from 10 min to 190 min” value ([1]; Example XII, buspirone 1 mg/kg s.c., 6-OH-Busp 0.3, 1 and 3 mg/kg s.c., vs vehicle) was “dose-dependently decreased”. For the same molecule, the “AIMs of LID rats at time points” value ([1]; Example XIII, 1 mg/kg s.c., 50 min and 70 min after L-DOPA injection) was “did not significantly decrease”, the “AIMs of LID rats at time points” value ([1]; Example XIII, 3 mg/kg s.c., 50 to 190 min) was “significantly decreased” and the “AIMs of LID rats at time points” value ([1]; Example XIV, 1 mg/kg s.c. alone, 90 min and 110 min after L-DOPA injection) was “did not have significant effects”. For the same molecule, the IC50 [2] was 4.9 ± 2.8 µM, the IC50 [3] was 850 ± 490 nM and the “half-life (T½)” value ([4]; after administration of either parent buspirone or 6-OH-Busp) was “longer than that of buspirone”. For the same molecule, the AUC0-INF [4, 5] was 52.93 ngxh/ml, the Cmax [4, 5] was 9.12 ng/mL and the AUC0-INF [4, 6] was 131.52 ngxh/ml. For the same molecule, the Cmax [4, 6] was 25.63 ng/mL.
